Each structure is given as a SMILES string. “And” between values parts separate entries of the source, which are not always exact repeats. Identical values can stand only once.

The term IC50 denotes the midpoint of a concentration-inhibition curve. The inhibition is the change of the read-out against control, counted positive when it falls. By GI50 is commonly meant the concentration giving 50% growth inhibition.

For one assay, the target named is T1, recombinant human HDAC6 (Homo sapiens, UniProt Q9UBN7).
T1 construct: purchased BPS Biosciences (San Diego, CA, USA)
T1 sequence (Q9UBN7 1-1215): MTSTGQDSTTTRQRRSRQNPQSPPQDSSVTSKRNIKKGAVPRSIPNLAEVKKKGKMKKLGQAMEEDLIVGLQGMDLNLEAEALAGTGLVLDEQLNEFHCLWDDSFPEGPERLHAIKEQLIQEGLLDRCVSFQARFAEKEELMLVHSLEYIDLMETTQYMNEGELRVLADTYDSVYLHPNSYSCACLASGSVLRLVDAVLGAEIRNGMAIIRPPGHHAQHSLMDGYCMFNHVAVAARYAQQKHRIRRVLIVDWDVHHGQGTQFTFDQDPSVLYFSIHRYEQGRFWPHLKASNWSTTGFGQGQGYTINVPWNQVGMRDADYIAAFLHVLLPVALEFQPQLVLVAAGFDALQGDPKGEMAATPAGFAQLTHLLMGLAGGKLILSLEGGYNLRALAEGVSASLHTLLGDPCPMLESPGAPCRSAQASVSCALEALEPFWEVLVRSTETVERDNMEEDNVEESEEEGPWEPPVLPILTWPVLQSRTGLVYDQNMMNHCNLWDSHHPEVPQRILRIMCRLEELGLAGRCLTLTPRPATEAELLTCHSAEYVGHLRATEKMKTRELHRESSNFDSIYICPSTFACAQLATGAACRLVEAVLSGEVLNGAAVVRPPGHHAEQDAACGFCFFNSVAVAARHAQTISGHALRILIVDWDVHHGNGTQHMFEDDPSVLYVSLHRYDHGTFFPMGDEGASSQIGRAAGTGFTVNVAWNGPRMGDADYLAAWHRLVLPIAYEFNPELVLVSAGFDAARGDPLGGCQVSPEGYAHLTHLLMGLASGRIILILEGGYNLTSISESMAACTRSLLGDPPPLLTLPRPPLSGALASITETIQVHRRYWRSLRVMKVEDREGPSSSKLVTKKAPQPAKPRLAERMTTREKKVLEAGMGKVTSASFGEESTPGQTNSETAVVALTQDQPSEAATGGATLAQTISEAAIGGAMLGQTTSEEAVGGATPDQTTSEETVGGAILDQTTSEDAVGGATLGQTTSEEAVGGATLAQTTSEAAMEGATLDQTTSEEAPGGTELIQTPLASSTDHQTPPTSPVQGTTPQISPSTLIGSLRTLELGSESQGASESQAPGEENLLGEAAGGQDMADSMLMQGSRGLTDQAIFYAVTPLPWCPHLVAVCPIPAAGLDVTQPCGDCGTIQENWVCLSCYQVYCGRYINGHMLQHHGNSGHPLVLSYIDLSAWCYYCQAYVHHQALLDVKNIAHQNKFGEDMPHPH
The assay can be described thus: HDAC6 in vitro fluorescence-based inhibition assay (ZMAL substrate). Format: biochemical. Particulars: recombinant human HDAC6, ZMAL 10.5 µM, 90 min 37 °C; for IC50: read-out: IC50 (µM) ± SE HDAC6. An excerpt:
(§1) In order to investigate a potential subtype selectivity among different HDAC classes, we first tested them against the recombinant histone deacetylases HDAC1 (class I) and HDAC6 (class llb). […] To further address this issue, we also tested the respective compounds against the class l histone deacetylase HDAC8 (also see Table 1).
(§2) Recombinant human HDAC1 and 6 were purchased from BPS Biosciences (San Diego, CA, USA), and recombinant human HDAC8 was produced as described before. Inhibition tests of human HDAC1 and 6 were conducted using carboxybenzyl acetyllysine aminomethylcoumarin (ZMAL) as a substrate. […] For testing of HDAC8, the commercial Fluor de Lys drug discovery kit (BML-KI178) (Enzo Life Sciences, Lausen, Switzerland) was used according to the manufacturer’s instruction. Briefly, the test compound, Fluor de Lys-HDAC8 substrate (50 μM), and enzyme were incubated for 90 min at 37 °C with subsequent addition of 50 μL of Developer II (BML-KI176) (Enzo Life Sciences, Lausen, Switzerland) and further incubation for 45 min at 30 °C. In both assays, trichostatin A (2 μM) was used to stop the reaction. Fluorescence in both cases was measured in a plate reader (BMG Polarstar, BMG Labtech, Ortenberg, Germany) with excitation at λ = 390 nm and emission at λ = 460 nm.

The next assay has as its target T2, recombinant human HDAC8 (Homo sapiens, UniProt Q9BY41).
T2 construct: made in house
T2 sequence (Q9BY41 1-377): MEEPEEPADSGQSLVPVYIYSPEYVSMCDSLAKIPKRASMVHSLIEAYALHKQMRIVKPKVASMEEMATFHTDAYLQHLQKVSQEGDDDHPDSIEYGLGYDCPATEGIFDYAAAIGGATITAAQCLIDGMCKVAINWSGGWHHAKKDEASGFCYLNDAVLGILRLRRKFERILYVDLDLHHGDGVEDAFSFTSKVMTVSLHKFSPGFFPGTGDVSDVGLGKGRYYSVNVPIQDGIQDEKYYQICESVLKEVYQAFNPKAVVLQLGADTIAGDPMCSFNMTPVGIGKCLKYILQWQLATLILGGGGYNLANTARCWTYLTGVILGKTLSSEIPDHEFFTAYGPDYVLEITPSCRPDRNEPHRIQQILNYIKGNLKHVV
The assay can be described thus: HDAC8 in vitro inhibition assay (Fluor de Lys kit). The format is biochemical. Conditions: for inhibition at 100 µM: read-out: Inhibition (%) @ Conc. (µM) HDAC8.
From the text: as §1, §2

In assay [1] the test system is HDAC activity in HL60 cells. The assay can be described thus: Cellular HDAC inhibition assay (MAL substrate) in HL60 cells. Particulars: Homo sapiens, HL-60, read-out: IC50 (µM) ± SE cellular HDAC inhibition HL60.
Method: (§3) Therefore, we decided to adapt this assay for a cellular setting allowing us to verify the previous results by assessing HDAC inhibition in the human leukemia cell lines HL60 and U937 (see the right side of Table 2).
(§4) After 2 h of incubation, 50 µL substrate solution were added, containing tert-butyloxycarbonyl acetyl lysine aminomethylcoumarin (MAL) as a substrate (300 µM final assay concentration) and IGEPAL CA-630 (final concentration 0.05%). After 2 more hours of incubation at 37 °C and 5% CO2, 50 µL stop solution consisting of 0.5 µL TSA (100 µM) and 5 µL trypsin solution (10 mg/mL) in 44.5 µL cell buffer were added. This mixture was incubated for a further 20 min at 37 °C. Fluorescence was measured in a plate reader (BMG Polarstar) with excitation at λ = 390 nm and emission at λ = 460 nm.
The subject of assay [2] is HDAC activity in U937 cells. Briefly: Cellular HDAC inhibition assay (MAL substrate) in U937 cells. Particulars: Homo sapiens, U-937, read-out: IC50 (µM) ± SE cellular HDAC inhibition U937.
Method: as §3, §4
The test system of the next assay is HL60 cells. The assay can be described thus: Cell proliferation assay (CellTiter 96 AQueous) in HL60 cells. Conditions: Homo sapiens, HL-60, 72 h, read-out: GI50 (µM) ± SE HL60.

As to `CCNC(=O)ONC(=O)CCCCCCC(=O)Nc1ccccc1` [Compound 2c, [(8-Anilino-8-oxo-octanoyl)amino]N-ethylcarbamate], the half-maximal inhibitory concentration (IC50) on recombinant human HDAC6 stood at 0.58 ± 0.01 µM; in assay [1], 1.42 ± 0.53 µM; in assay [2] it was 2.07 ± 0.04 µM. Also, the inhibition at 100 µM at recombinant human HDAC8 was found to be 68%. In the assay on HL60 cells, the 50% growth inhibitory concentration (GI50) was determined as 0.99 ± 0.17 µM.
As for `O=C(CCCCCCC(=O)Nc1ccccc1)NOC(=O)NCc1ccccc1` [Compound 2b, [(8-Anilino-8-oxo-octanoyl)amino]N-benzylcarbamate], the concentration for half-maximal inhibition (IC50) on recombinant human HDAC6 turned out to be 0.637 ± 0.002 µM; in assay [1], 1.89 ± 0.04 µM; in assay [2], 3.02 ± 0.03 µM. The inhibition at 100 µM on recombinant human HDAC8 turned out to be 52%. Also, the GI50 with HL60 cells stood at 1.06 ± 0.11 µM.
In the case of `CC(C)NC(=O)ONC(=O)CCCCCCC(=O)Nc1ccccc1` [Compound 2a, [(8-Anilino-8-oxo-octanoyl)amino]N-isopropylcarbamate], the “IC50 (µM) ± SE HDAC6” value on recombinant human HDAC6 is given as “low micromolar range”. For the same molecule, the half-maximal inhibitory concentration (IC50) on recombinant human HDAC6 was determined as 2.11 ± 0.02 µM; in assay [1] it was 3.25 ± 0.02 µM; in assay [2], 5.3 ± 0.59 µM. Also, the inhibition at 100 µM on recombinant human HDAC8 turned out to be 35%. Also, in the assay on HL60 cells, the GI50 amounted to 1.02 ± 0.09 µM.
Take `O=C(CCCCCCC(=O)Nc1ccccc1)NOC(=O)Nc1ccccc1` [Compound 2d, [(8-Anilino-8-oxo-octanoyl)amino]N-phenylcarbamate]: the IC50 on recombinant human HDAC6 is 0.187 ± 0.007 µM; on recombinant human HDAC8 (recombinant human HDAC8, Fluor de Lys-HDAC8 substrate 50 µM, 90 min 37 °C, read-out: IC50 (µM) ± SE HDAC8) it was 6.5 µM and 6.49 µM; in assay [1] it was 0.69 ± 0.004 µM; in assay [2] it was 0.71 ± 0.002 µM. Besides, the GI50 in the assay on HL60 cells turned out to be 0.58 ± 0.05 µM.

Values taken from paper PMC6017415, “Carbamates as Potential Prodrugs and a New Warhead for HDAC Inhibition” (Molecules : A Journal of Synthetic Chemistry and Natural …, 2018).
